Data taken from patent US6365616B1, “Methimazole derivatives and tautomeric cyclic thiones to treat autoimmune diseases” (Sentron Medical, Inc., priority 1998, dated 2002).

Test system: NOD mice
Assay: Prevention of glucosuria and diabetes in female NOD mice
Format: in vivo, mouse
Details: 5-phenylmethimazole at a fifth the MMI concentration
Source text: Female NOD mice were also obtained from Jackson Labs, along with control mice from which the strain was developed (Makino et al., Exp. Anim. 29:1-13 (1980); Wicker, L. S., et al., Diabetes 35:855-860 (1986)). Animals showing urine Tes-Tape positivity greater than 1 + were considered positive and to have diabetes (Wicker, L. S., et al., ibid (1986)). At 8-16 weeks, […] of NOD mice develop glucosuria and diabetes according to the literature (Wicker, L. S., et al., ibid (1986)).
Table 20 presents results of the ability of Female NOD mice (5 animals were in each group) to develop glucosuria and diabetes when treated with MMI and compound 10 (5-phenylmethimazole) at a fifth the MMI concentration, by comparison to no treatment or treatment with 2-mercaptoimidazole. Mice were from Jackson Labs in this experiment. Animals showing urine Tes-Tape positivity greater than 1+ were considered positive and to have diabetes.
Compound 10 and MMI are therefore effective in preventing diabetes in the NOD mouse example of diabetes.

Row | SMILES | development of glucosuria and diabetes by 12 weeks
1 | Cn1ccnc1S [Compound 1, 1-Methylimidazole-2-thiol] | prevented glucosuria
2 | Sc1ncc[nH]1 [Compound 3, 2-Mercaptoimidazole] | developed diabetes
3 | Cn1c(-c2ccccc2)cnc1S [Compound 10, 5-Phenylmethimazole] | prevented glucosuria
